Assay [1] addresses T1, MDM2 (Homo sapiens, UniProt Q00987).
T1 construct: made in house
The assay can be described thus: Inhibition test of MDM2-P53 (GST-MDM2, Biotin-P53, Anti-GST-Tb, SA-XL665). Format: binding. An outline of the steps: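 HTRF-type assay using 4 nM GST-MDM2 (final), Biotin-P53, SA-XL665 and anti-GST-Tb in PBS with 0.1% BSA, 5 mM DTT and 1 mM AEBSF. Compounds in 5-fold serial dilutions over twelve points; incubation 90 min at 25° C with shaking before plate-reader read-out.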

The subject of assay [2] is human osteosarcoma cell line SJSA-1. The assay can be described thus: Inhibition of proliferation of human osteosarcoma cell line SJSA-1 (DAPI staining, In Cell Analyzer). The following applies: Homo sapiens, SJSA-1, 72 h, read-out: IC50 (nM), inhibitory activity on proliferation of human osteosarcoma cell line SJSA-1, SJSA-1, incubated 72 h.

T1 sequence (Q00987 whole entry): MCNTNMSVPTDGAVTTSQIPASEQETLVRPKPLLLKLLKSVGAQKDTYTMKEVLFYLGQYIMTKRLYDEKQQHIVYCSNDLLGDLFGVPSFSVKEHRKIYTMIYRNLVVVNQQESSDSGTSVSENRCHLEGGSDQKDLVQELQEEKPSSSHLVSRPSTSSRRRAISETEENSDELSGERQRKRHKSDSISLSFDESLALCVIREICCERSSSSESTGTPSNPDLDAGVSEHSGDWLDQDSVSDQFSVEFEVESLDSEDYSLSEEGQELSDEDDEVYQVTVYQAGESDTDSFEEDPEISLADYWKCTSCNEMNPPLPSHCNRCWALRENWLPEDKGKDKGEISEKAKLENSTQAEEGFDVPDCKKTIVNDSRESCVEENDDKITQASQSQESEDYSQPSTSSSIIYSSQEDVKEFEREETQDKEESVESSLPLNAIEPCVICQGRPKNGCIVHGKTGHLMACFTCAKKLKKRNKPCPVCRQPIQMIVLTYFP

`COc1cc(C(=O)N(C)C)ccc1-c1nc2c(n1C(C)C)[C@@]1(C(=O)Nc3cc(Cl)ccc31)N(c1cc(Cl)ccc1C)C2=O` [Example S-68, (S)-4-(6-chloro-5′-(5-chloro-2-methylphenyl)-3′-isopropyl-2,6′-dioxo-5′,6′-dihydro-3′H-spiro[dihydroindole-3,4′-pyrrolo[3,4-d]imidazole]-2′-yl)-3-methoxy-N,N-dimethylbenzamide]: the IC50 is 2.32 nM in assay [1] and 1700 nM in assay [2].

`COc1ccc(CC(=O)N(C)C)cc1-c1nc2c(n1C(C)C)[C@@]1(C(=O)Nc3cc(Cl)ccc31)N(c1cc(Cl)ccc1C)C2=O` [Example S-70, (S)-2-(3-(6-chloro-5′-(5-chloro-2-methylphenyl)-3′-isopropyl-2,6′-dioxo-5′,6′-dihydro-3′H-spiro[dihydroindole-3,4′-pyrrolo[3,4-d]imidazole]-2′-yl)-4-methoxyphenyl)-N,N-dimethylacetamide]: the results for the IC50 in assay [1] and in assay [2] were 0.94 nM and 73.6 nM, respectively.

As to `COc1ccc(N2C(=O)c3nc(-c4ccc(N)cc4OC)n(C(C)C)c3[C@@]23C(=O)Nc2cc(Cl)ccc23)cc1Cl` [Example S-71, (S)-2′-(4-amino-2-methoxyphenyl)-6-chloro-5′-(3-chloro-4-methoxyphenyl)-3′-isopropyl-3′H-spiro[dihydroindole-3,4′-pyrrolo[3,4-d]imidazole]-2,6′(5′H)-dione], the IC50 in assay [1] came to 2.96 nM; in assay [2], 292 nM.

For the compound `COc1cc(N)ccc1-c1nc2c(n1C(C)C)[C@@]1(C(=O)Nc3cc(Cl)ccc31)N(c1ccc(F)c(Cl)c1)C2=O` [Example S-73, (S)-2′-(4-amino-2-methoxyphenyl)-6-chloro-5′-(3-chloro-4-fluorophenyl)-3′-isopropyl-3′H-spiro[dihydroindole-3,4′-pyrrolo[3,4-d]imidazole]-2,6′(5′H)-dione], the figures for the IC50 in assay [1] and in assay [2] were 1.1 nM and 251 nM, respectively.

On to `COc1cc(N)c(C)cc1-c1nc2c(n1C(C)C)[C@@]1(C(=O)Nc3cc(Cl)ccc31)N(c1cc(Cl)ccc1C)C2=O` [Example S-74, (S)-2′-(4-amino-2-methoxy-5-methylphenyl)-6-chloro-5′-(5-chloro-2-methylphenyl)-3′-isopropyl-3′H-spiro[dihydroindole-3,4′-pyrrolo[3,4-d]imidazole]-2,6′(5′H)-dione], for which the IC50 amounted to 0.98 nM in assay [1] and 7.85 nM in assay [2].

Regarding `COc1cc(N)c(F)cc1-c1nc2c(n1C(C)C)[C@@]1(C(=O)Nc3cc(Cl)ccc31)N(c1cc(Cl)ccc1C)C2=O` [Example S-75, (S)-2′-(4-amino-5-fluoro-2-methoxyphenyl)-6-chloro-5′-(5-chloro-2-methylphenyl)-3′-isopropyl-3′H-spiro[dihydroindole-3,4′-pyrrolo[3,4-d]imidazole]-2,6′(5′H)-dione], the figures for the IC50 in assay [1] and in assay [2] were 0.97 nM and 9.84 nM, respectively.

Consider `COc1c(F)cccc1-c1nc2c(n1C(C)C)[C@@]1(C(=O)Nc3cc(Cl)ccc31)N(c1cc(Cl)ccc1C)C2=O` [Example S-76, (S)-6-chloro-5′-(5-chloro-2-methylphenyl)-2′-(3-fluoro-2-methoxyphenyl)-3′-isopropyl-3′H-spiro[dihydroindole-3,4′-pyrrolo[3,4-d]imidazole]-2,6′(5′H)-dione], for which the IC50 in assay [1] is 4.23 nM; in assay [2] it was 309 nM.

As to `COc1cc(C(N)=O)ccc1-c1nc2c(n1C(C)C)[C@@]1(C(=O)Nc3cc(Cl)ccc31)N(c1cc(Cl)ccc1C)C2=O` [Example S-77, (S)-4-(6-chloro-5′-(5-chloro-2-methylphenyl)-3′-isopropyl-2,6′-dioxo-5′,6′-dihydro-3′H-spiro[dihydroindole-3,4′-pyrrolo[3,4-d]imidazole]-2′-yl)-3-methoxybenzamide], the results for the IC50 in assay [1] and in assay [2] were 1.86 nM and 535 nM, respectively.

Turning to `COc1cc(N(C)C)c(F)cc1-c1nc2c(n1C(C)C)[C@@]1(C(=O)Nc3cc(Cl)ccc31)N(c1cc(Cl)ccc1C)C2=O` [Example S-78], the IC50 in assay [1] turned out to be 1.42 nM; in assay [2], 7.88 nM.

As for `COc1cccc(OC)c1-c1nc2c(n1C(C)C)[C@@]1(C(=O)Nc3cc(Cl)ccc31)N(c1cc(Cl)ccc1C)C2=O` [Example S-79, (S)-6-chloro-5′-(5-chloro-2-methylphenyl)-2′-(2,6-dimethoxyphenyl)-3′-isopropyl-3′H-spiro[dihydroindole-3,4′-pyrrolo[3,4-d]imidazole]-2,6′(5′H)-dione], the IC50 is 1.89 nM in assay [1] and 72.4 nM in assay [2].

For `COc1ccc(-c2nc3c(n2C(C)C)[C@@]2(C(=O)Nc4cc(Cl)ccc42)N(c2cc(Cl)ccc2F)C3=O)c(OC)c1` [Example S-80, (S)-6-chloro-5′-(5-chloro-2-fluorophenyl)-2′-(2,4-dimethoxyphenyl)-3′-isopropyl-3′H-spiro[dihydroindole-3,4′-pyrrolo[3,4-d]imidazole]-2,6′(5′H)-dione], the figures for the IC50 in assay [1] and in assay [2] were 2.56 nM and 16.9 nM, respectively.

For `COc1cc(N(C)C)ccc1-c1nc2c(n1C(C)C)[C@@]1(C(=O)Nc3cc(Cl)ccc31)N(c1cc(Cl)ccc1F)C2=O` [Example S-81, (S)-6-chloro-5′-(5-chloro-2-fluorophenyl)-2′-(4-(dimethylamino)-2-methoxyphenyl)-3′-isopropyl-3′H-spiro[dihydroindole-3,4′-pyrrolo[3,4-d]imidazole]-2,6′(5′H)-dione], the IC50 came to 1.23 nM in assay [1] and 82.8 nM in assay [2].

As to `COc1nc(N(C)C)ncc1-c1nc2c(n1C(C)C)[C@@]1(C(=O)Nc3cc(Cl)ccc31)N(c1cc(Cl)ccc1C)C2=O` [Example S-82, (S)-6-chloro-5′-(5-chloro-2-methylphenyl)-2′-(2-(dimethylamino)-4-methoxypyrimidin-5-yl)-3′-isopropyl-3′H-spiro[dihydroindole-3,4′-pyrrolo[3,4-d]imidazole]-2,6′(5′H)-dione], the IC50 is 1.16 nM in assay [1] and 7.43 nM in assay [2].

Consider `COc1cc(OC)c(-c2nc3c(n2C(C)C)[C@@]2(C(=O)Nc4cc(Cl)ccc42)N(c2cc(Cl)ccc2C)C3=O)cc1C` [Example S-83, (S)-6-chloro-5′-(5-chloro-2-methylphenyl)-2′-(2,4-dimethoxy-5-methylphenyl)-3′-isopropyl-3′H-spiro[dihydroindole-3,4′-pyrrolo[3,4-d]imidazole]-2,6′(5′H)-dione], for which the values for the IC50 in assay [1] and in assay [2] were 2.23 nM and 6.21 nM, respectively.

In the case of `COc1cc(C(F)(F)F)ccc1-c1nc2c(n1C(C)C)[C@@]1(C(=O)Nc3cc(Cl)ccc31)N(c1cc(Cl)ccc1C)C2=O` [Example S-85, (S)-6-chloro-5′-(5-chloro-2-methylphenyl)-3′-isopropyl-2′-(2-methoxy-4-(trifluoromethyl)phenyl)-3′H-spiro[dihydroindole-3,4′-pyrrolo[3,4-d]imidazole]-2,6′(5′H)-dione], the IC50 was found to be 3.3 nM in assay [1] and 40.2 nM in assay [2].

Take `COc1cc(C2CC2)ccc1-c1nc2c(n1C(C)C)[C@@]1(C(=O)Nc3cc(Cl)ccc31)N(c1cc(Cl)ccc1C)C2=O` [Example S-86, (S)-6-chloro-5′-(5-chloro-2-methylphenyl)-2′-(4-cyclopropyl-2-methoxyphenyl)-3′-isopropyl-3′H-spiro[dihydroindole-3,4′-pyrrolo[3,4-d]imidazole]-2,6′(5′H)-dione]: the IC50 in assay [1] stood at 2.59 nM; in assay [2], 21.2 nM.

For the compound `COc1cc(OC(F)(F)F)ccc1-c1nc2c(n1C(C)C)[C@@]1(C(=O)Nc3cc(Cl)ccc31)N(c1cc(Cl)ccc1C)C2=O` [Example S-87, (S)-6-chloro-5′-(5-chloro-2-methylphenyl)-3′-isopropyl-2′-(2-methoxy-4-(trifluoromethoxy)phenyl)-3′H-spiro[dihydroindole-3,4′-pyrrolo[3,4-d]imidazole]-2,6′(5′H)-dione], the IC50 was 3.31 nM in assay [1] and 11.1 nM in assay [2].

On to `CCOc1ccc(-c2nc3c(n2C(C)C)[C@@]2(C(=O)Nc4cc(Cl)ccc42)N(c2cc(Cl)ccc2C)C3=O)c(OC)c1` [Example S-88, (S)-6-chloro-5′-(5-chloro-2-methylphenyl)-2′-(4-ethoxy-2-methoxyphenyl)-3′-isopropyl-3′H-spiro[dihydroindole-3,4′-pyrrolo[3,4-d]imidazole]-2,6′(5′H)-dione], for which the IC50 in assay [1] came out at 2.34 nM; in assay [2], 77.3 nM.

For `COc1cc(C(C)C)ccc1-c1nc2c(n1C(C)C)[C@@]1(C(=O)Nc3cc(Cl)ccc31)N(c1cc(Cl)cnc1C)C2=O` [Example S-89, (S)-6-chloro-5′-(5-chloro-2-methylpyridin-3-yl)-3′-isopropyl-2′-(4-isopropyl-2-methoxyphenyl)-3′H-spiro[dihydroindole-3,4′-pyrrolo[3,4-d]imidazole]-2,6′(5′H)-dione], the IC50 in assay [1] stood at 4.32 nM; in assay [2] it was 43.2 nM.

For the compound `COc1nc(N)ncc1-c1nc2c(n1C(C)C)[C@@]1(C(=O)Nc3cc(Cl)ccc31)N(c1cc(Cl)ccc1C)C2=O` [Example S-90, (S)-2′-(2-amino-4-methoxypyrimidin-5-yl)-6-chloro-5′-(5-chloro-2-methylphenyl)-3′-isopropyl-3′H-spiro[dihydroindole-3,4′-pyrrolo[3,4-d]imidazole]-2,6′(5′H)-dione], the IC50 in assay [1] was 1.38 nM; in assay [2], 255 nM.

For the compound `COc1cc(N(C)C)c(C)cc1-c1nc2c(n1C(C)C)[C@@]1(C(=O)Nc3cc(Cl)ccc31)N(c1cc(Cl)ccc1C)C2=O` [Example S-91, (S)-6-chloro-5′-(5-chloro-2-methylphenyl)-2′-(4-(dimethylamino)-2-methoxy-5-methylphenyl)-3′-isopropyl-3′H-spiro[dihydroindole-3,4′-pyrrolo[3,4-d]imidazole]-2,6′(5′H)-dione], the IC50 in assay [1] came to 3.56 nM; in assay [2], 14.4 nM.

Values taken from patent US11339171B2, “MDM2 inhibitors” (Gan & Lee Pharmaceuticals, priority 2017, dated 2022).
